This is an account of results in article PMC2771899, “Augmentation of Reverse Transcription by Integrase through an Interaction with Host Factor, SIP1/Gemin2 Is Critical for HIV-1 Infection” (PLoS ONE, 2009).

Experiment [1] concerns recombinant SIP1 (rSIP1). Put plainly: In vitro binding assay, nickel-column pull-down. The settings on record: 10 µg rSIP1 with 10 µg His-IN, 2 h, 4°C, nickel agarose, anti-SIP1 Western blot. For orientation: A western blot detects proteins with antibodies after separation by electrophoresis.
Experiment [2] addresses recombinant SIP1 (rSIP1) (UniProt O14893).
The target is the same in experiment [3]. This is another data set of the same source.
For a further experiment, the system named is rSIP1. Put plainly: Dot-blot binding of peptide to SIP1. The settings on record: 40 or 400 nmol peptide on nitrocellulose, rSIP1 (5 µg), anti-SIP1 antibody.
For experiment [4], the target named is T1, IN-SIP1 mediated RT activity (Homo sapiens, UniProt O14893).
T1 construct: the SIP1 gene was amplified from pTRE-SIP1 (kindly provided by Dr. G. Dreyfuss) by PCR and cloned into BamHI and EcoRI sites of pGEX-6P-2; GST (N, cleaved yes); made in house; host or cells: E. coli BL21 (GST-SIP1), E. coli M15 (His-IN)
T1 sequence (O14893 1-280): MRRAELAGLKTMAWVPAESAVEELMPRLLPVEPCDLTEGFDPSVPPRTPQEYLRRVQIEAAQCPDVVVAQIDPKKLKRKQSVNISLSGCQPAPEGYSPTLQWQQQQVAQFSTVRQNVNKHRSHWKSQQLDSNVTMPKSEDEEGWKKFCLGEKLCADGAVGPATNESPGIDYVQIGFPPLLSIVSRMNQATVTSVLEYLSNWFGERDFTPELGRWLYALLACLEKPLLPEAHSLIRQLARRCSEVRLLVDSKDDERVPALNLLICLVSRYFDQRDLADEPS
Nature of the experiment: In vitro RT assay, inhibition of IN-SIP1 mediated RT activity by peptide. The settings on record: 35 fmol RT, 3.5 fmol His-IN, 50 fmol rSIP1; for Effect on IN-SIP1 mediated RT activity: cDNA relative to control. Format: biochemical, HIV-1.

A further experiment has as its system IN-V5. Nature of the experiment: Expression level of IN-V5 in 293T cells by Western blotting.
The target of experiment [5] is full-length His-tagged HIV-1 integrase Y15A (HIV-1 (pNL4-3)). Nature of the experiment: not stated; data not shown; in vitro, recombinant IN-Y15A.
The target of experiment [6] is wild type HIV-1 integrase with V5 epitope (IN-V5, WT-V5) (HIV-1 (pNL4-3)). Nature of the experiment: cross-linking.
A further experiment deals with HIV-1 RT (GST-RTp66). Nature of the experiment: In vitro RT assay, stimulation by IN and SIP1. Format: biochemical. The settings on record: truncated IN, any dose; 35 fmoles RT; 42°C, 30 min; real-time PCR; P = 0.58∼0.98. The method, then: Figure 4 Augmentation of reverse transcription by HIV-1 IN and SIP1 in vitro. (A, B) The in vitro RT assay was carried out with 35 fmoles of HIV-1 RT (GST-RTp66) in the absence or presence of different amounts of full-length rIN (WT-IN). The truncated form of IN (IN1–70) that lack SIP1 binding domains was also tested in apparel as a control. The amount of HIV-1 cDNA was measured by real-time PCR using the HIV-1 R/U5 (A) or R/gag (B) primer pair. Significant augmentation (p<0.05) by WT-IN in the levels of HIV-1 cDNA compared with the level without IN (0 fmole) was indicated by asterisks. (C) The in vitro RT assay was carried out as described in (A) in either the absence or presence of […] of WT-IN, together with different amounts of rSIP1. (D) The in vitro RT assay was carried out with 3.5 fmoles of WT-IN (black bar) or IN1–70 (slash bar), in either the absence (−) or presence (+) of 50 fmoles of rSIP1. (E) The oligo(dT) cellulose resin was incubated with in vitro transcribed HIV-1 RNA for 1 h. After incubation, 10 µg of GST-RT in either the absence or presence of His-IN or rSIP1 was added and incubated for 2 h. After four washes with the IN storage buffer, precipitates were analyzed by immunoblot analysis using an anti-GST antibody.
For preparation of the viral RNA template for in vitro transcription, the DNA sequences corresponding to HIV-1 lentiviral genomic RNA (pCS-CDF-CG-PRE) were subcloned into pGEM-T vector (pGEM-CS-CDF). Then, the annealed oligonucleotides of TCGA(A)30G and TCGA(T)30C were inserted into the pGEM-CS-CDF vector at the Sal-I site for addition of the poly(A) tail (the pGEM-CS-CDF-PolyA). Synthesized HIV RNA with the poly(A) 30 tail were produced by in vitro transcription using RiboMAX™ Large Scale RNA Production System-T7 (Promega) with Ribo m^7 G Cap analog (Promega) to mimic the capped structure of mRNA. Transcription products of HIV-1 RNA (4.9 kb) were purified with spin columns MicroSpin™ G-25 Columns (American Biosciences), followed by gel-filtration using NAP-5 columns, (American Biosciences) and were used in the in vitro RT assay. The reverse transcription reactions were carried out in a final volume of 20 µl RT reaction buffer consisting of 50 mM Tris-HCl (pH 8.3), 75 mM KCl, 3 mM MgCl2, 10 mM DTT, 1 mM dNTPs, 0.04∼0.4 fmoles of HIV-1 RNA templates and 0.4∼4 fmoles of RNA primer, 3.5∼35 fmol HIV-1 RT (GST-RTp66). The reaction was carried out at 42°C for 30 min in either the absence or presence of different amount of His-IN and recombinant SIP1. The amount of the cDNA product was measured by real-time PCR using primers for the R/U5 or R/gag region.
Supplementary file pone.0007825.s004.pdf: Figure S4 Stoichiometry and order of IN and SIP1 for their stimulatory effect of cDNA synthesis. (A) The in vitro RT assay was carried out in the absence or presence of different amount of the His-IN (0.2 or 1 pmol) or recombinant SIP1 (0.2 or 1 pmol) as described in Figure 4. The amount of cDNA product was measured by real-time PCR using primers for HIV-1 R/U5 region. (B) The in vitro RT assay was carried out with 5 pmoles of His-IN in the absence or presence of different amount SIP1 (1 or 5 pmol). (C) The in vitro RT assay was carried out in the absence or presence of the His-IN and recombinant SIP1 with [α32P]dCTP and subjected to SDS-PAGE analysis in denatured condition. (D) In vitro RT assay was performed as described above, except that rIN with rRT and rSIP1 were pre-incubated on ice in different combinations and orders (inlet Table). Then, reaction was initiated by adding mixture containing the template RNA/PBS-primer and dNTPs. (0.10 MB PDF) Click here for additional data file.
In general terms: Real-time PCR tracks product formation cycle by cycle.

Experiment [7] relates to IN-SIP1 interaction (His-IN, rSIP1). Put plainly: Dot-blot inhibition of IN-SIP1 interaction by peptide. Format: binding, HIV-1.
Experiment [8] relates to HIVNL43-luc/VSV-G pseudotypes. Format: cell-based, HIV-1.

“And” between values parts separate entries of the source, which are not always exact repeats. Equal entries are not always repeated. Peptide text beside a SMILES is read from it. * marks the point of attachment. Cbz = O=C(OCc1ccccc1)*

On to 1-60: His-tagged IN deletion form, for which the “Binding to rSIP1 in vitro” value in the experiment with recombinant SIP1 (rSIP1) [1] is reported as “did not bind to rSIP1”.

For synthetic peptide IN60–80, in the experiment with recombinant SIP1 (rSIP1) [2], the IC50 of inhibition of the IN-SIP1 mediated RT activity in the in vitro reverse transcription assay (35 fmol RT, 3.5 fmol His-IN, 50 fmol rSIP1); the pair blocked is m2 with m15 (pmoles per reaction) was 10. In the experiment with recombinant SIP1 (rSIP1) [3], the HIV-1 infectivity (luciferase activity) in PMA-stimulated THP-1 cells with 100 µM peptide, relative to control; the pair blocked is IN with SIP1 was 20 % of control and 25 % of control. As to 1-230: His-tagged IN deletion form, the “Binding to rSIP1 in vitro” value in the experiment on recombinant SIP1 (rSIP1) [1] is “significantly restored binding of IN to rSIP1”. For 1-100: His-tagged IN deletion form, the “Binding to rSIP1 in vitro” value in the experiment on recombinant SIP1 (rSIP1) [1] is reported as “significant binding to rSIP1”. In the case of 1-80: His-tagged IN deletion form, the “Binding to rSIP1 in vitro” value with recombinant SIP1 (rSIP1) [1] is “significant binding to rSIP1”. With synthetic peptide IN231–251, the IC50 of inhibition of the IN-SIP1 mediated RT activity in the in vitro reverse transcription assay (35 fmol RT, 3.5 fmol His-IN, 50 fmol rSIP1); the pair blocked is m2 with m15 (nmoles per reaction) in the experiment with recombinant SIP1 (rSIP1) [2] amounted to 1. As to “IN154–174: control peptide, residues of 154–174, contains a motif critical for the interaction with LEDGF/p75 (MNKELKKIIGQVRDQAEHLKT; Integrase; UniProt P04585 1301-1321, looked up, fragment) [reference compound]”, the “Direct binding of peptide to rSIP1” value in the experiment with rSIP1 is listed as “did not”. Moreover, in experiment [4], the “Effect on IN-SIP1 mediated RT activity” value was “inhibitory effect was not evident”. Turning to `CC(C)C[C@@H](C=O)NC(=O)[C@H](CC(C)C)NC(=O)[C@H](CC(C)C)NC(=O)OCc1ccccc1` [MG132] (Cbz-Leu-Leu-Leu-aldehyde), the “Effect of MG132 on level of WT-V5” value with IN-V5 (10 µM MG-132) is listed as “not changed”. Besides, in the experiment on IN-V5 (10 µM MG-132, Y15A-V5, K186Q-V5 and LL241,242AA-V5), the “Effect of MG132 on expression level of IN mutants” value is listed as “restored the expression levels of the IN mutants”. The “Effect of MG132 on level of IN-V5 in siSIP1-treated cells” value with IN-V5 (siSIP1 treated) is “restored”.

1-70: His-tagged IN deletion form: the “Binding to rSIP1 in vitro” value in the experiment with recombinant SIP1 (rSIP1) [1] is reported as “did not bind to rSIP1”.

As for 1-90: His-tagged IN deletion form, the “Binding to rSIP1 in vitro” value in the experiment with recombinant SIP1 (rSIP1) [1] is “significant binding to rSIP1”.

For “full-length His-tagged HIV-1 integrase Y15A (enzyme)”, the stoichiometry N (usually the number of molecules, sites or subunits per partner or assembly) in [5] was 2. The molecule “wild type HIV-1 integrase with V5 epitope (IN-V5, WT-V5) (enzyme)” gave a tetramer formation relative to control siRNA treated cells (SIP1 knock-down cells) in [6] of 50%. Take 1-220: His-tagged IN deletion form: in the experiment on recombinant SIP1 (rSIP1) [1], the “Binding to rSIP1 in vitro” value is listed as “significantly restored binding of IN to rSIP1”. As for “IN1–70: truncated HIV-1 IN that lacks the central and C-terminal domains”, the “Effect on level of cDNA products (R/U5)” value with HIV-1 RT (GST-RTp66) was “no significant stimulatory effect at any dose”. Take 1-240: His-tagged IN deletion form: the “Binding to rSIP1 in vitro” value in the experiment on recombinant SIP1 (rSIP1) [1] is reported as “significantly reduced binding to rSIP1”. Consider “1-270: His-tagged IN, the 18 amino acids from the C-terminal deleted”, for which, in the experiment with recombinant SIP1 (rSIP1) [1], the “Binding to rSIP1 in vitro” value is “efficient interaction with rSIP1 in vitro”. As for “IN231–251: synthetic peptide corresponding to the residues of 231–251 of HIV-1 IN”, in the experiment on rSIP1, the “Direct binding of peptide to rSIP1” value is reported as “efficiently bound to rSIP1”. Moreover, the “Peptide concentration that reduces His-WT binding to SIP1 to non-specific background levels” value in experiment [7] (His-IN (10 µg) on nitrocellulose, 5 µg rSIP1) is reported as “at least 50 µM”. The “Interference with binding of full-length IN (His-WT) to SIP1” value in experiment [7] (His-IN (10 µg) on nitrocellulose, 5 µg rSIP1, peptide present) is given as “significantly interfered with the binding of the full-length IN (His-WT) to the SIP1 protein”. Besides, the “Effect on IN-SIP1 interaction and its RT-stimulatory effects” value in experiment [7] (summary statement) was “inhibit the IN-SIP1 interaction and its RT-stimulatory effects”. The “IC50, inhibition of IN-SIP1 mediated RT activity” value in experiment [4] (42°C, 30 min, 20 µl, real-time PCR) is approximately 1 nmoles per reaction. Moreover, in experiment [4], the “Effect on IN-SIP1 mediated RT activity” value is listed as “significantly reduced the IN-SIP1 mediated RT activity in a dose-dependent manner”. In addition, in experiment [8], the “Effect on HIV-1 infectivity” value is “did not significantly reduce HIV-1 infectivity”. In the case of 1-250: His-tagged IN deletion form, the “Binding to rSIP1 in vitro” value in the experiment with recombinant SIP1 (rSIP1) [1] is on record as “significantly reduced binding to rSIP1”.

1-260: His-tagged IN deletion form: the “Binding to rSIP1 in vitro” value with recombinant SIP1 (rSIP1) [1] is reported as “significantly reduced binding to rSIP1”.
